Data on four compounds can be found in patent US20230321086A1, “METHODS AND MATERIALS FOR INHIBITING NICOTINAMIDE PHOSPHORIBOSYLTRANSFERASE ACTIVITY” (Universiy of Pittsburgh - Of the Commonwealth System of …, priority 2020, published 2023).

By IC50 is commonly meant the midpoint of a concentration-inhibition curve.

The target in one assay is NAMPT (Homo sapiens, UniProt P43490). Nature of the assay: Assay for in vitro NAMPT activity via NMN assessment. It counts as biochemical. As to conditions: read-out: A: NAMPT enzyme inhibitory activity, IC50. An outline of the steps:
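Human NAMPT (8 μg/mL working solution) with PRPP (200 μM working) and compound in Tris pH 7.5 buffer with MgCl2, DTT and BSA; reaction started with NAM (100 μM working), 45 min at 37 °C. NMN product derivatized with acetophenone/KOH/formic acid, 30 min at 37 °C, fluorescence read at 387/441 nm.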

In another assay the test system is A431 cells. The experiment in a line: Assay for total NADH and NAD+ measurements in cells. It counts as cell-based. The following applies: Homo sapiens, A-431, read-out: B: Cellular NAD inhibitory activity, IC50. An outline of the steps:
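Cells (2,000/well) treated with compounds overnight, washed with PBS containing 1 mM CaCl2 and MgCl2, lysed with 0.4% DTAB in phosphate buffer pH 8.0. Reaction mix added and fluorescence (Ex/Em 530/585) followed over 8 cycles every 92 seconds; NAD given as % of untreated control.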

Sequence of NAMPT (P43490 whole entry, species assumed): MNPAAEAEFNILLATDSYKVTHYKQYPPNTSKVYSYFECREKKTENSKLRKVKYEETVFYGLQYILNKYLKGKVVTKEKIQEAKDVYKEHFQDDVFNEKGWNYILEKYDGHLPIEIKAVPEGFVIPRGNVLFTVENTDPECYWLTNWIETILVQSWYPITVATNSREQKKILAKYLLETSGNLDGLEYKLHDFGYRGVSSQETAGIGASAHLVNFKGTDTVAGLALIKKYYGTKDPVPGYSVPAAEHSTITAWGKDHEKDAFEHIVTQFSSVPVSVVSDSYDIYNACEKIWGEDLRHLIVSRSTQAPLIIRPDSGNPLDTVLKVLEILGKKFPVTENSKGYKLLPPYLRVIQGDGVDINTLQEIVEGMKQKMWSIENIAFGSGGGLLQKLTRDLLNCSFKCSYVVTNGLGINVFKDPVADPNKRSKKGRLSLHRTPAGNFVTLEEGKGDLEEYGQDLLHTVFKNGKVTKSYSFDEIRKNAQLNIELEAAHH

Regarding `Nc1ccc(CNC(=O)Nc2ccc3nc(-c4ccc(F)cc4)c(-c4ccc(F)cc4)nc3c2)cn1` [BC20331], the IC50 on NAMPT and with A431 cells was below 1000 nM in each case.

Take `O=C(NCc1cnc2nc(-c3ccc(F)cc3)c(-c3ccc(F)cc3)nc2c1)N1Cc2cccnc2C1` [BC20332]: the IC50 at NAMPT and with A431 cells was below 1000 nM each time.

For the compound `O=C(Nc1ccc2nc(-c3ccc(F)cc3)c(-c3ccc(F)cc3)nc2c1)N1Cc2cccnc2C1` [BC20333], the IC50 at NAMPT and with A431 cells was below 1000 nM in each case.

Take `O=C(Nc1cnc2nc(-c3ccc(F)cc3)c(-c3ccc(F)cc3)nc2c1)N1Cc2ccncc2C1` [BC20334]: the 50% inhibitory concentration (IC50) on NAMPT and in the assay on A431 cells was below 1000 nM throughout.
